Data reported in ChEMBL document CHEMBL3108715, “Pan-histone demethylase inhibitors simultaneously targeting Jumonji C and lysine-specific demethylases display high anticancer activities” (J Med Chem, 2014).

Experiments:
[1] = biological target: Lysine-specific histone demethylase 1A (Homo sapiens, UniProt O60341)
Description: Inhibition of human recombinant His-tagged LSD1 (171 to 836) assessed as hydrogen peroxide formation after 5 mins

[2] = biological target: T1, Lysine-specific demethylase 3A (Homo sapiens, UniProt Q9Y4C1)
T1 sequence (Q9Y4C1 whole entry): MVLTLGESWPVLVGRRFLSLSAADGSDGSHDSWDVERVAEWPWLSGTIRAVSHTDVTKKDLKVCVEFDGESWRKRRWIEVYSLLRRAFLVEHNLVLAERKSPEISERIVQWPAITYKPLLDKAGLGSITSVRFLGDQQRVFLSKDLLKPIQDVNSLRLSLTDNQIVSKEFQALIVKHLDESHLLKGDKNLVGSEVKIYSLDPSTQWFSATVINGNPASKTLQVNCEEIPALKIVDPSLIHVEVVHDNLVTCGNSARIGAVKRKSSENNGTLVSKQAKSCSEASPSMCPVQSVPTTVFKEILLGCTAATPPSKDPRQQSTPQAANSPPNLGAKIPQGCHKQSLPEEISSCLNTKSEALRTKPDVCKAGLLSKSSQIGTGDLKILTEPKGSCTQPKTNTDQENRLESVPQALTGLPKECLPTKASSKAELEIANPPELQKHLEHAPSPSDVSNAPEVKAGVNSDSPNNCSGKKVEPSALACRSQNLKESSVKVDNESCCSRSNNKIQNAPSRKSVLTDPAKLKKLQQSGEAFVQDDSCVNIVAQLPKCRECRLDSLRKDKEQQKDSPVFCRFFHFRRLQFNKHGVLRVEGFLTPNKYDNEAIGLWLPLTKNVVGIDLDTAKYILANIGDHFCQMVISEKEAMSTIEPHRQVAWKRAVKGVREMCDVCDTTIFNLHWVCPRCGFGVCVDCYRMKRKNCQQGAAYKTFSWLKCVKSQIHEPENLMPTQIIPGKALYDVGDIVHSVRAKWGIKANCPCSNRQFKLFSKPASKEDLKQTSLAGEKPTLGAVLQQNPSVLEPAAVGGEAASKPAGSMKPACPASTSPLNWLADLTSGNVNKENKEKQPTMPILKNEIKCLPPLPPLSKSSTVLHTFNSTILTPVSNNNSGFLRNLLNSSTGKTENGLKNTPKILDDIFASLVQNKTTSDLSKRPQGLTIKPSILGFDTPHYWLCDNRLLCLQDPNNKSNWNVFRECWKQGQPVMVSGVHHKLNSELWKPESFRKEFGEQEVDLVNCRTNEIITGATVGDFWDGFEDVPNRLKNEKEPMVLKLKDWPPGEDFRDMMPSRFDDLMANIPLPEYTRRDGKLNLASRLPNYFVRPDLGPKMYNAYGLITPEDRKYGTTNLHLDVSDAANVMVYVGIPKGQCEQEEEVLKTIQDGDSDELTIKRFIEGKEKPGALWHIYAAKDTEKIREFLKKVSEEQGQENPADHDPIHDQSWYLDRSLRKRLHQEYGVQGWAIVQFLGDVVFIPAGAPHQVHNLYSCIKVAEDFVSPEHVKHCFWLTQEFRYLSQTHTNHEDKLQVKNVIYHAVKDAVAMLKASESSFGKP
Description: Inhibition of recombinant JMJD1A (unknown origin) incubated for 15 mins prior to substrate addition by AlphaScreen method

[3] = biological target: Lysine-specific demethylase 5C (Homo sapiens, UniProt P41229)
Lysine-specific demethylase 5C, sequence (P41229 whole entry): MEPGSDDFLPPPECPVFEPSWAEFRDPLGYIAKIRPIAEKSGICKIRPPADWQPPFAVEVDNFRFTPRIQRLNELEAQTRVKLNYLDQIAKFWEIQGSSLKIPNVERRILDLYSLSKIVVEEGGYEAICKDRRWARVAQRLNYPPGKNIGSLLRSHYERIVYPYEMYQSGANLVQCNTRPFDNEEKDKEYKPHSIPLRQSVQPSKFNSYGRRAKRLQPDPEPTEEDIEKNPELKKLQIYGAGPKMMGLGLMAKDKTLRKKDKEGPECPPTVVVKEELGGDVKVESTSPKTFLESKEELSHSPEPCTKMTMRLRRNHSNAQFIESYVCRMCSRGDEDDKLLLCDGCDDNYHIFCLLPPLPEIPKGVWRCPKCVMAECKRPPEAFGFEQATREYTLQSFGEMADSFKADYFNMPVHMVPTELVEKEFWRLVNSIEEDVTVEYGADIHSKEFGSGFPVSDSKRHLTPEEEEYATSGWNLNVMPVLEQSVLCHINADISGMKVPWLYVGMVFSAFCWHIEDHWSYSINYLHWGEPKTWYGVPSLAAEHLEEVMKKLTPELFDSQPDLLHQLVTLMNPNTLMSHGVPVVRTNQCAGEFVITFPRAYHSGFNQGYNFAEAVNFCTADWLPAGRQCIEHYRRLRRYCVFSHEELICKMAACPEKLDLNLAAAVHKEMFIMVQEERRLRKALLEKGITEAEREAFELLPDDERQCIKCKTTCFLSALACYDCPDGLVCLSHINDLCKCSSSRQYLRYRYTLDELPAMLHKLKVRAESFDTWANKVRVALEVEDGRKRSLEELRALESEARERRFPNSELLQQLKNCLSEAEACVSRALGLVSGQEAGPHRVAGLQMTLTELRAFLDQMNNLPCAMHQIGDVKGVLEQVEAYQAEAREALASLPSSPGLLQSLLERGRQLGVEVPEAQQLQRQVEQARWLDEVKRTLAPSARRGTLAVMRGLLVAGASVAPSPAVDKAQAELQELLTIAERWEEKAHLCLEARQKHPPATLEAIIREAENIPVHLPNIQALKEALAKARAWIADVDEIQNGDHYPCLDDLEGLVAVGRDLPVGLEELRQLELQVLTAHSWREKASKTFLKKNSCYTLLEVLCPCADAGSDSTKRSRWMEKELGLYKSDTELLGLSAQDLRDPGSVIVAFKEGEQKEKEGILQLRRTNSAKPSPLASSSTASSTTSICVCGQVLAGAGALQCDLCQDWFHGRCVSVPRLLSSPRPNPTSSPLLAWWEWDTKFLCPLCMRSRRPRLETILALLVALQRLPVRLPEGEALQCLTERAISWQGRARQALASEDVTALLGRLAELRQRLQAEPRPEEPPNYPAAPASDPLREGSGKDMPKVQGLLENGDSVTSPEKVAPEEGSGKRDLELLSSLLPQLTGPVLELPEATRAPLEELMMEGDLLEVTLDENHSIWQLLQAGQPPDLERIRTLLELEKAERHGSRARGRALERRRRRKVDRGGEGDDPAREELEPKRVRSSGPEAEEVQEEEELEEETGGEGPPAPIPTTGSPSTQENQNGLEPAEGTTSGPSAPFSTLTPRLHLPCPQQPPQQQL
Description: Inhibition of recombinant JARID1C (unknown origin) incubated for 15 mins prior to substrate addition by AlphaScreen method

[4] = biological target: Lysine-specific demethylase 6B (Homo sapiens, UniProt O15054)
Lysine-specific demethylase 6B, sequence (O15054 whole entry): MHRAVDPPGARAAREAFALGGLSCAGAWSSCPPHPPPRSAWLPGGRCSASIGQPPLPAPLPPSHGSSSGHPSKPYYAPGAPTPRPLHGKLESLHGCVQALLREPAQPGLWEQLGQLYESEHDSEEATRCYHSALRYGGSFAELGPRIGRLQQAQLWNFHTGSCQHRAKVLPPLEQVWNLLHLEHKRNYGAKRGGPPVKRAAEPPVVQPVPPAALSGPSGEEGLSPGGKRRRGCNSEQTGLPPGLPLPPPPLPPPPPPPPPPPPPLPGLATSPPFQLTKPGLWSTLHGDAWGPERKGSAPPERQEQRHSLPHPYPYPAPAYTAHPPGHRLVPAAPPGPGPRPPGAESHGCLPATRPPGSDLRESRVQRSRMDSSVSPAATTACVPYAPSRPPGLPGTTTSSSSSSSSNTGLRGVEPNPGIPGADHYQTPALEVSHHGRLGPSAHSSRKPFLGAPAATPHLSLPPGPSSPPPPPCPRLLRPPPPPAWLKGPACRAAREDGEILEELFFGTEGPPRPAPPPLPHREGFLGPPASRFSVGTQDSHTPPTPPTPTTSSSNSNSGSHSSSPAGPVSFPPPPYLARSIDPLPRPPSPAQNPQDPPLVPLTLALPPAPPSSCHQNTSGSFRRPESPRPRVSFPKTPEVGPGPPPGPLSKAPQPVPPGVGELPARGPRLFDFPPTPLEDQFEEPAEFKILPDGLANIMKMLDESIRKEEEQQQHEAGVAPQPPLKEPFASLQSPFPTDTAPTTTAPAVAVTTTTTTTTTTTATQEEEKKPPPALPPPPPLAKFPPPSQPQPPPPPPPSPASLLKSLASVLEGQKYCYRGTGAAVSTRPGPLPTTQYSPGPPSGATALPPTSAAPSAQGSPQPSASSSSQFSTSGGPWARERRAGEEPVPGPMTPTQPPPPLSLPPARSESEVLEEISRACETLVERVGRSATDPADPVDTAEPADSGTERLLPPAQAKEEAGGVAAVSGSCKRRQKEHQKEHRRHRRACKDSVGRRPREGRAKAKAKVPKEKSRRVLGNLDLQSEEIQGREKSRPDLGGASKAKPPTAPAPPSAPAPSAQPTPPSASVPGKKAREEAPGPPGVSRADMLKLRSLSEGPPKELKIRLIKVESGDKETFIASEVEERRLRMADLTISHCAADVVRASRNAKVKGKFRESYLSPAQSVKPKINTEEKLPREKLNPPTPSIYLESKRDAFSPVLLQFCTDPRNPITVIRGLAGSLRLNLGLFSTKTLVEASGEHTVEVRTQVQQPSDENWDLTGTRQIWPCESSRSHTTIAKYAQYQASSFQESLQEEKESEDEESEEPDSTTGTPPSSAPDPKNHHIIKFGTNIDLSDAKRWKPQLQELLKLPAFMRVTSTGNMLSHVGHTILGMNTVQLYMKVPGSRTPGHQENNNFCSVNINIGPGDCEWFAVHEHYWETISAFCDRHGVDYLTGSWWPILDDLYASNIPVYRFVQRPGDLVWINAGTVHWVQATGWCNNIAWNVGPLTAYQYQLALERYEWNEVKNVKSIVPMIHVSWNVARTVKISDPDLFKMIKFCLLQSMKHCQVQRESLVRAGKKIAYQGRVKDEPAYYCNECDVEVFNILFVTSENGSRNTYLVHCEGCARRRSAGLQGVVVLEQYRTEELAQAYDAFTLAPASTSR
Description: Inhibition of recombinant JMJD3 (unknown origin) incubated for 15 mins prior to substrate addition by AlphaScreen method

[5] = biological target: T2, Lysine-specific demethylase 4E (Homo sapiens, UniProt B2RXH2)
T2 sequence (B2RXH2 whole entry): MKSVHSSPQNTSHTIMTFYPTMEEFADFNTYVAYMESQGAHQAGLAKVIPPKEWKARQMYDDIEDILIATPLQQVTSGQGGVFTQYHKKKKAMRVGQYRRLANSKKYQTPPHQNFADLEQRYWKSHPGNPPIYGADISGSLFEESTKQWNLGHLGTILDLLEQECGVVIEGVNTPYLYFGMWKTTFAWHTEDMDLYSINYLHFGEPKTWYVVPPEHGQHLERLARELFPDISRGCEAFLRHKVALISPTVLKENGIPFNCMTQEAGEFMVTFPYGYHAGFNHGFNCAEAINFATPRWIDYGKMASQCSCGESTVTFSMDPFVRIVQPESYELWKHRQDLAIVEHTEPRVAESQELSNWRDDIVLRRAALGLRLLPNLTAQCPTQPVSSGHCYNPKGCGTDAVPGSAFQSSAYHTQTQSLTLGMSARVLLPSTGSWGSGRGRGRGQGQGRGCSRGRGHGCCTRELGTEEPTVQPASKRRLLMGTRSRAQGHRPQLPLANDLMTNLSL
Description: Inhibition of recombinant JMJD2E (unknown origin) incubated for 15 mins prior to substrate addition by AlphaScreen method

[6] = biological target: T3, Amine oxidase [flavin-containing] A (Homo sapiens, UniProt P21397)
T3 sequence (P21397 whole entry): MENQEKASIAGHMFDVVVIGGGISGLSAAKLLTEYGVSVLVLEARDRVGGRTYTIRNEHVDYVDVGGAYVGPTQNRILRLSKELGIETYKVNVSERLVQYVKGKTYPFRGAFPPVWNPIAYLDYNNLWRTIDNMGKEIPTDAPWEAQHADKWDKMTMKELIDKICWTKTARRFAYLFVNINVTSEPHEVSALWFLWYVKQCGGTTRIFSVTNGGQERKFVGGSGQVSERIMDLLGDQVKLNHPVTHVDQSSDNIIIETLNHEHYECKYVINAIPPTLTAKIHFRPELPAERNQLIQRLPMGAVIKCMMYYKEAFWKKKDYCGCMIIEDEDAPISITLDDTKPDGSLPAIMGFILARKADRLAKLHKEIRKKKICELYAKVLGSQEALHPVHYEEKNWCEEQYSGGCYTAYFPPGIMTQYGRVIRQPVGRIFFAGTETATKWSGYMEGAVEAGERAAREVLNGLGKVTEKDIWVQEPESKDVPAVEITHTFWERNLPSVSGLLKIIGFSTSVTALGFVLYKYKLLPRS
Description: Inhibition of human recombinant MAO-A expressed in Pichia pastoris using kynuramine as substrate after 5 mins

[7] = biological target: T4, Amine oxidase [flavin-containing] B (Homo sapiens, UniProt P27338)
T4 sequence (P27338 whole entry): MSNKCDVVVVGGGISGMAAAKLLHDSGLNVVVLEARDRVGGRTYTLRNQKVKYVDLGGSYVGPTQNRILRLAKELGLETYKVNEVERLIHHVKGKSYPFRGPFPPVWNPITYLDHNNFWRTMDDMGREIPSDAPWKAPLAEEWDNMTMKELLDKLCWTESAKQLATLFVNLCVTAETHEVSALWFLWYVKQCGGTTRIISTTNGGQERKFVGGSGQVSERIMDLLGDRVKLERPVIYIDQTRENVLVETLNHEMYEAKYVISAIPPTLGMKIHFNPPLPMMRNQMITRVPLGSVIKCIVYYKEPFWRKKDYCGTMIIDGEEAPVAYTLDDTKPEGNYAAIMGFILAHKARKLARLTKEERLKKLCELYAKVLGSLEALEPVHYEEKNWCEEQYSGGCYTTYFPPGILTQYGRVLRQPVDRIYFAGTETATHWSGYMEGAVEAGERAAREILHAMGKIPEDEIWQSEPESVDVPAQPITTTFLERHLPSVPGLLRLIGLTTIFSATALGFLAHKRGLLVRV
Description: Inhibition of human recombinant MAO-B expressed in Pichia pastoris using benzylamine as substrate after 5 mins

Structure (SMILES)	IC50 [1]	IC50 [2]	IC50 [3]	IC50 [4]	IC50 [5]	IC50 [6]	IC50 [7]
COC(=O)c1ccnc(-c2cc(C(=O)O)ccn2)c1	> 100 µM	1.1 µM	0.03 µM	11.2 µM	5 µM		
N[C@H]1C[C@@H]1c1ccc(NC(=O)CCCCNC(=O)c2ccc(O)c3ncccc23)cc1 (relative stereo)	1.6 µM	9.7 µM	21 µM	14 µM	3.5 µM		
N[C@@H]1C[C@H]1c1ccc(NC(=O)c2ccnc(-c3cc(C(=O)O)ccn3)c2)cc1 (relative stereo)	2.2 µM	0.14 µM	0.19 µM	2.7 µM	0.42 µM	35.4 µM	47 µM

Molecules with a lower IC50 [1], results first:

IC50 [1]	IC50 [2]	IC50 [3]	IC50 [4]	IC50 [5]	IC50 [6]	IC50 [7]	Structure (SMILES)
< 1 µM	31 µM	26 µM	27 µM	3.9 µM	8.9 µM	81 µM	Cl.N[C@@H]1C[C@H]1c1ccc(NC(=O)c2ccc(O)c3ncccc23)cc1 (relative stereo)
< 1 µM	12 µM	35 µM	18 µM	5.5 µM			N[C@H]1C[C@@H]1c1ccc(NC(=O)CCCNC(=O)c2ccc(O)c3ncccc23)cc1 (relative stereo)
1 µM	9.1 µM	37 µM	16 µM	5.1 µM			Cl.N[C@H]1C[C@@H]1c1ccc(NC(=O)CCCCCNC(=O)c2ccc(O)c3ncccc23)cc1 (relative stereo)
< 1 µM	37 µM	8.5 µM	76 µM	16 µM	< 1 µM	43.3 µM	COC(=O)c1ccnc(-c2cc(C(=O)Nc3ccc([C@@H]4C[C@H]4N)cc3)ccn2)c1.Cl (relative stereo)
